From patent publication US7608577B2, “Peptidyl ketones as inhibitors of DPIV” (OSI Pharmaceuticals, Inc., priority 2001, dated 2009) come the findings set out here.

The target in assay [1] is T1, Angiotensin-I converting enzyme (ACE) (Oryctolagus cuniculus, UniProt P12822).
T1 construct: purchased Sigma A-6778
T1 sequence (P12822 34-1310): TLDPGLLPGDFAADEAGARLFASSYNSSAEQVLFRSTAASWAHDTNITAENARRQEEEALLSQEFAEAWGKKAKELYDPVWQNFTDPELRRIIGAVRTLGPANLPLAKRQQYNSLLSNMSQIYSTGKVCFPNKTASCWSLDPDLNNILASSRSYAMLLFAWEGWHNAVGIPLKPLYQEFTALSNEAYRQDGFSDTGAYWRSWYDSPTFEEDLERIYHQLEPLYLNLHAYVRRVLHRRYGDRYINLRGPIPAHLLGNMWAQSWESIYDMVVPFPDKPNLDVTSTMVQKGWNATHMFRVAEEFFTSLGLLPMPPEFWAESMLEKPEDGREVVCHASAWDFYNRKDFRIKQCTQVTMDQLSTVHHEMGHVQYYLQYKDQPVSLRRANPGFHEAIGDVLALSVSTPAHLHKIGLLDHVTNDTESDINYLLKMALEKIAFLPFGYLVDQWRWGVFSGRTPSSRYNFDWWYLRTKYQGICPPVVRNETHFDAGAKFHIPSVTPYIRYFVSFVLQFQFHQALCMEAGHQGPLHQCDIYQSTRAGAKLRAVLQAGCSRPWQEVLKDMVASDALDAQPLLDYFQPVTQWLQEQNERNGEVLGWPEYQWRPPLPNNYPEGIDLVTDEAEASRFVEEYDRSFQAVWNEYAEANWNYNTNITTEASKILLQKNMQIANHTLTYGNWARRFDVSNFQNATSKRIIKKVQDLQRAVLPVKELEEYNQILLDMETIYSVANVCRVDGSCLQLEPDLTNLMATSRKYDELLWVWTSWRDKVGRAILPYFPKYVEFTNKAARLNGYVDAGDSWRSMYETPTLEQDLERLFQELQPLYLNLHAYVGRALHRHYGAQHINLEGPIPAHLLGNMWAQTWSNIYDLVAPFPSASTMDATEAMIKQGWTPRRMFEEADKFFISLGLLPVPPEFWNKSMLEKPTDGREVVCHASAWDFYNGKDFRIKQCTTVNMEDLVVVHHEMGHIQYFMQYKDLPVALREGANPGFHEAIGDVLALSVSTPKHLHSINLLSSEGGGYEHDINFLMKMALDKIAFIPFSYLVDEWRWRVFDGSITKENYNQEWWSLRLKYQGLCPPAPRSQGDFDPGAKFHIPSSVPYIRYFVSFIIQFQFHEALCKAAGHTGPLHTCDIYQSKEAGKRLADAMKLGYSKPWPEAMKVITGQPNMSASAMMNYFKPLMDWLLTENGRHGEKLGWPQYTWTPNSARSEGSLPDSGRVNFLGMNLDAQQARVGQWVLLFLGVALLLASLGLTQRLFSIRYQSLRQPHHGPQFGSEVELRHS
As to the kind of experiment: Cross reacting enzymes: ACE. Type of assay: biochemical. To be noted: Sigma enzyme A-6778. The protocol: For IC50 determination of ACE an enzyme produced by Sigma was used (Prod. No. A-6778). The assay procedure and calculation of activity described by the manufacturer was adapted to half of the described volumes.
The IC50-values were calculated using Graphit 4.0.15 (Erithacus Software, Ltd., UK).

Assay [2] has as its system diabetic Zucker rats. Kind of assay: Glucose tolerance (OGTT) in diabetic Zucker rats. To be noted: for Improvement: vs AUC control. Type of assay: in vivo, Zucker rats (fa/fa). The protocol:
N=30 male Zucker rats (fa/fa), mean age 11 weeks (5-12 weeks), mean body weight 350 g (150-400 g), were purchased from Charles River (Sulzfeld, Germany). They were kept for >12 weeks until all the fatty Zucker rats had the characteristics of manifest Diabetes mellitus.
Animals were kept single-housed under conventional conditions with controlled temperature (22±2° C.) on a 12/12 hours light/dark cycle (light on at 06:00 a.m.). Standard pellets (ssniff®, Soest, Germany) and tap water acidified with HCl were allowed ad libitum.
Fatty Zucker rats, 17-24 weeks old, adapted to the housing conditions, were well prepared for the tests. Catheters were implanted into the carotid artery of fatty Zucker rats under general anaesthesia (i.p. injection of 0.25 ml/kg b.w. Rompun® [2%], BayerVital, Germany and 0.5 ml/kg b.w. Ketamin 10, Atarost GmbH & Co., Twistringen, Germany). The animals were allowed to recover for one week. The catheters were flushed with heparin-saline (100 IU/ml) three times per week. In case of catheter dysfunction, a second catheter was inserted into the contra-lateral carotid artery of the respective rat. After one week of recovery from surgery, this animal was reintegrated into the study. In case of dysfunction of the second catheter, the animal was withdrawn from the study. A new animal was recruited and the experiments were continued in the planned sequence, beginning at least 7 days after catheter implantation.
Fatty Zucker rats with intact catheter function were given in random order placebo (1 ml saline, 0.154 mol/l; N=9 animals as control), or test substance, solved in 1 ml saline (N=6 animals in each test group).
After overnight fasting, the fatty Zucker rats were given placebo and test substance, respectively, via feeding tube orally (15 G, 75 mm; Fine Science Tools, Heidelberg, Germany) at −10 min. An oral glucose tolerance test (OGTT) with 2 g/kg b.w. glucose as a 40% solution (B. Braun Melsungen, Melsungen, Germany) was implemented at ±0 min. The glucose was administered via a second feeding tube. Arterial blood samples from the carotid catheter were collected at −30 min, −15 min, ±0 min and at 5, 10, 15, 20, 30, 40, 60, 90 and 120 min into 20 μl glass capillaries, which were placed in standard tubes filled with 1 ml solution for hemolysis (blood glucose measurement). […]
Blood glucose: Glucose levels were measured using the glucose oxidase procedure (Super G Glukosemeβgerät; Dr. Müller Gerätebau, Freital, Germany).

For assay [3], the target named is T2, dipeptidyl peptidase IV from porcine kidney (Sus scrofa, UniProt P22411).
T2 construct: dipeptidyl peptidase IV from porcine kidney with a specific activity against glycylprolyl-4-nitroaniline of 37.5 U/mg; from tissue; host or cells: porcine kidney
Kind of assay: Ki determination, DPIV inhibition (inhibitor released from prodrug by APN). Type of assay: biochemical. To be noted: for Ki: porcine kidney DPIV, substrate Gly-Pro-pNA, APN added to release inhibitor, HEPES pH7.6, read-out: Ki; for T1/2 (half-life, from enzyme activity versus reaction time): same assay as Ki, unstable competitive inhibitor. The protocol: 500 μl test compound in a concentration range of 1*10^−5 M-1*10^−11M were admixed with and 500 μl HEPES buffer (40 mM, pH7.6; ion strength=0.125) and 20 μl of diluted DPIV. Release of the inhibitor from the prodrug as well the monitoring reaction (DPIV-catalyzed hydrolysis of Gly-Pro-pNA) were started by addition of a mixture of 10 μl of APN stock solution (4.9 mg/ml, Sigma, Taufkirchen, Germany) with 250 μl of the substrate (Gly-Pro-pNA, 0.05-4 mM). Development of yellow color due to 4-nitroaniline release were monitored at λ=405 nm for up to 180 min using UV1 Spectrometer (ThermoSpectronic).
The Ki-values were calculated by fitting the first derivative of the time-progress curves using Graphit (v.4.0.13, Erithacus Software, Ltd, UK) and an equation for an unstable competitive inhibitor.
The half-life (t1/2) was calculated by plotting the enzyme activity versus reaction time.

T2 sequence (P22411 whole entry): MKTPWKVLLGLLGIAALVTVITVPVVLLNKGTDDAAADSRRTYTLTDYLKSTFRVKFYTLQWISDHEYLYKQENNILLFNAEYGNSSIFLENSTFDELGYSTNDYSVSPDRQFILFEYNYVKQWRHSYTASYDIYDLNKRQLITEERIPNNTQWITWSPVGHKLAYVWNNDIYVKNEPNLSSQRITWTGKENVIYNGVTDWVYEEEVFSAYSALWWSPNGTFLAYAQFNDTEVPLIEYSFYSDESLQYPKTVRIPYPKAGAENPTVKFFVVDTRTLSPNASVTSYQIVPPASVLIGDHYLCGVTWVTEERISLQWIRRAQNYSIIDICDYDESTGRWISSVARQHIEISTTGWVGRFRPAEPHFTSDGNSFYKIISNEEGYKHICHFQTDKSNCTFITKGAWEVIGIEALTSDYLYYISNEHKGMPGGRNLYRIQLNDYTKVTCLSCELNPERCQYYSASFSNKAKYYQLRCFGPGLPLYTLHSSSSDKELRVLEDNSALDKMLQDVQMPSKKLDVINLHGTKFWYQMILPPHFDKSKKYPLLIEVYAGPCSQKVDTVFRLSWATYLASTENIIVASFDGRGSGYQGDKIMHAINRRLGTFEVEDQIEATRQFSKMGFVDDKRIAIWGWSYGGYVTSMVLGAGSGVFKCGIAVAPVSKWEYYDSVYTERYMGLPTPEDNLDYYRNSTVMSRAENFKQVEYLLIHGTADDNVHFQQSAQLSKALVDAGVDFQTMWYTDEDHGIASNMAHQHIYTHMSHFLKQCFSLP

Broadly, the Ki is a dissociation constant, usually derived from enzyme kinetics or from competition with a known ligand. Turning to `Br.CC(=O)OCC(=O)[C@@H]1CCCN1C(=O)[C@@H](NC(=O)[C@H](C)N)C(C)C` [H-Ala-Val-Pro-CH2O—CO—CH3*HBr, 2-[(Acetyloxy-methyl)carbonyl]-1-N-[(L)-Alanyl-(L)-Valinyl]-(2S)-pyrrolidine hydrobromide], the “ACE IC50” value in assay [1] is “no inhibition”. Also, the AUC test compound in assay [2] (OGTT, 5 mg/kg b.w. oral) worked out at 309.1 mmol·min/L; in assay [2] (OGTT, 15 mg/kg b.w. oral) it was 300.9 mmol·min/L; in assay [2] (OGTT, 50 mg/kg b.w. oral) it was 254.7 mmol·min/L. For the same compound, the Improvement in assay [2] (OGTT, 5 mg/kg b.w. oral) is recorded as 44.9%; in assay [2] (OGTT, 15 mg/kg b.w. oral) it was 46.4%; in assay [2] (OGTT, 50 mg/kg b.w. oral), 54.6%. The Ki in assay [3] was determined as 1.05 nM. Moreover, the “T1/2 (half-life, from enzyme activity versus reaction time)” value in assay [3] worked out at 10.8 min.
On to `Br.CC(C)[C@H](NC(=O)[C@H](C)N)C(=O)N1CCC[C@H]1C(=O)COC(=O)c1ccccc1` [H-Ala-Val-Pro-CO—CH2O—CO—Ph*HBr, 2-[(Benzoyloxy-methyl)carbonyl]-1-N-[{(L)-Alanyl}-(L)-Valinyl]-(2S)-pyrrolidine hydrobromide], for which the “ACE IC50” value in assay [1] is “no inhibition”. In assay [2] (OGTT, 5 mg/kg b.w. oral), the AUC test compound was found to be 209.1 mmol·min/L and the Improvement is recorded as 59.5%. In assay [2] (OGTT, 15 mg/kg b.w. oral), the AUC test compound was determined as 245.4 mmol·min/L and the Improvement was found to be 52.6%. For the same compound, in assay [2] (OGTT, 50 mg/kg b.w. oral), the AUC test compound stood at 160.5 mmol·min/L and the Improvement is reported as 69.0%. In addition, in assay [3], the Ki stood at 0.536 nM and the “T1/2 (half-life, from enzyme activity versus reaction time)” value was 15.1 min.
With `Br.CC(=O)[C@@H]1CCCN1C(=O)[C@@H](NC(=O)[C@H](C)N)C(C)C` [H-Ala-Val-Pro-Me*HBr, 2-Methylcarbonyl-1-N-[(L)-Alanyl-(L)-Valinyl]-(2S)-pyrrolidine hydrobromide], in assay [1], the “ACE IC50” value is given as “no inhibition”. In assay [2] (OGTT 2 g/kg glucose, 100 mg/kg b.w. oral), this compound displayed an AUC test compound of 394.4 mmol·min/L. In assay [2] (OGTT, 100 mg/kg b.w. oral), this compound gave an Improvement of 48.5%. Also, in assay [3], the Ki amounted to 47.6 nM and the “T1/2 (half-life, from enzyme activity versus reaction time)” value worked out at 12.4 min.
